Holding throughout (format): functional
In experiment [1] the test system is Digitaria sanguinalis. The experiment in a line: Post-emergence herbicidal activity against Digitaria sanguinalis (hairy crabgrass) assessed as injury at 50 g/ha applied at 15 days post-sowing measured after 15 days relative to control.
The next experiment deals with Setaria viridis. The experiment is described as follows: Pre-emergence herbicidal activity against Setaria viridis (green foxtail) assessed as injury at 50 g/ha applied at 24 hr post-sowing measured after 28 days relative to control.
A further experiment has as its system Calystegia sepium. The experiment is described as follows: Pre-emergence herbicidal activity against Calystegia sepium assessed as injury at 50 g/ha applied at 24 hr post-sowing measured after 28 days relative to control.
The next experiment concerns Panicum dichotomiflorum. The experiment is described as follows: Pre-emergence herbicidal activity against Panicum dichotomiflorum assessed as injury at 50 g/ha applied at 24 hr post-sowing measured after 28 days relative to control.
Experiment [2] relates to Persicaria maculosa. The experiment is described as follows: Post-emergence herbicidal activity against Persicaria maculosa assessed as injury at 150 g/ha applied at 15 days post-sowing measured after 15 days relative to control.
The subject of another experiment is Phalaris arundinacea. The experiment in a line: Post-emergence herbicidal activity against Phalaris arundinacea assessed as injury at 50 g/ha applied at 15 days post-sowing measured after 15 days relative to control.
In experiment [3] the test system is Digitaria sanguinalis. The experiment in a line: Post-emergence herbicidal activity against Digitaria sanguinalis (hairy crabgrass) assessed as injury at 150 g/ha applied at 15 days post-sowing measured after 15 days relative to control.
In experiment [4] the test system is Ammi majus. The experiment in a line: Post-emergence herbicidal activity against Amni maius assessed as injury at 15 g/ha applied at 15 days post-sowing measured after 15 days relative to control.
The test system of experiment [5] is Portulaca oleracea. The experiment is described as follows: Post-emergence herbicidal activity against Portulaca oleracea assessed as injury at 5 g/ha applied at 15 days post-sowing measured after 15 days relative to control.
In experiment [6] the test system is Chenopodium album. The experiment is described as follows: Post-emergence herbicidal activity against Chenopodium album assessed as injury at 5 g/ha applied at 15 days post-sowing measured after 15 days relative to control.
Another experiment deals with Matricaria chamomilla. The experiment in a line: Pre-emergence herbicidal activity against Matricaria chamomilla assessed as injury at 150 g/ha applied at 24 hr post-sowing measured after 28 days relative to control.
In experiment [7] the test system is Ammi majus. The experiment is described as follows: Pre-emergence herbicidal activity against Amni maius assessed as injury at 50 g/ha applied at 24 hr post-sowing measured after 28 days relative to control.
Experiment [8] deals with Digitaria sanguinalis. The experiment in a line: Pre-emergence herbicidal activity against Digitaria sanguinalis (hairy crabgrass) assessed as injury at 50 g/ha applied at 24 hr post-sowing measured after 28 days relative to control.
The test system of another experiment is Solanum nigrum. The experiment in a line: Pre-emergence herbicidal activity against Solanum nigrum (black nightshade) assessed as injury at 50 g/ha applied at 24 hr post-sowing measured after 28 days relative to control.
Experiment [9] concerns Ammi majus. The experiment in a line: Pre-emergence herbicidal activity against Amni maius assessed as injury at 150 g/ha applied at 24 hr post-sowing measured after 28 days relative to control.
Experiment [10] relates to Chenopodium album. The experiment in a line: Pre-emergence herbicidal activity against Chenopodium album assessed as injury at 150 g/ha applied at 24 hr post-sowing measured after 28 days relative to control.
The subject of experiment [11] is Persicaria maculosa. The experiment is described as follows: Post-emergence herbicidal activity against Persicaria maculosa assessed as injury at 50 g/ha applied at 15 days post-sowing measured after 15 days relative to control.
The next experiment deals with Papaver rhoeas. The experiment in a line: Pre-emergence herbicidal activity against Papaver rhoeas assessed as injury at 50 g/ha applied at 24 hr post-sowing measured after 28 days relative to control.
Experiment [12] concerns Sorghum bicolor. The experiment in a line: Pre-emergence herbicidal activity against Sorghum bicolor assessed as injury at 150 g/ha applied at 24 hr post-sowing measured after 28 days relative to control.
Experiment [13] concerns Portulaca oleracea. The experiment in a line: Post-emergence herbicidal activity against Portulaca oleracea assessed as injury at 15 g/ha applied at 15 days post-sowing measured after 15 days relative to control.
The test system of experiment [14] is Sorghum bicolor. The experiment is described as follows: Pre-emergence herbicidal activity against Sorghum bicolor assessed as injury at 50 g/ha applied at 24 hr post-sowing measured after 28 days relative to control.

As to `C#CCOc1cc(-n2nc(C(C)(C)C)sc2=O)c(Cl)cc1Cl`, the Activity in the experiment with Digitaria sanguinalis [1] worked out at 50%; in the experiment on Setaria viridis, 30%; in the experiment on Calystegia sepium, 0%; in the experiment on Panicum dichotomiflorum, 90%; with Persicaria maculosa [2] it was 90%; in the experiment on Phalaris arundinacea it was 30%. In addition, the Activity with Digitaria sanguinalis [3] is given as 70%; with Ammi majus [4] it was 0%; in the experiment with Portulaca oleracea [5] it was 50%; in the experiment on Chenopodium album [6], 10%; in the experiment on Matricaria chamomilla it was 50%; with Ammi majus [7], 0%. Also, the Activity in the experiment on Digitaria sanguinalis [8] stood at 70%; in the experiment on Solanum nigrum, 30%; in the experiment on Ammi majus [9] it was 0%; in the experiment on Chenopodium album [10], 90%; in the experiment on Persicaria maculosa [11], 90%; with Papaver rhoeas, 70%. Besides, the Activity in the experiment with Sorghum bicolor [12] worked out at 50%; in the experiment on Portulaca oleracea [13], 70%; with Sorghum bicolor [14] it was 0%.

(Values after ChEMBL document CHEMBL3046079, “Synthesis, herbicidal activity, and mode of action of IR 5790” (J Agric Food Chem, 2001).)
